Structures can show the parent of a compound that is named as a salt.

Experimental findings from patent publication US6982348B2, “Aminoethanol derivatives” (Takeda Pharmaceutical Company Limited, priority 2001, dated 2006) are described below.

With `O=C(N[C@H](Cc1ccc(C(F)(F)F)cc1)[C@@H](O)c1ccc(F)cc1)c1cccc2c([N+](=O)[O-])cccc12` (racemic) [Example 40, N-[(1RS,2SR)-2-(4-fluorophenyl)-2-hydroxy-1-[4-(trifluoromethyl)benzyl]ethyl]-5-nitronaphthalene-1-carboxamide], the melting point lay in the range of 211 to 214 °C.
As for `O=C(CCCc1cccs1)NC(Cc1ccc(C(F)(F)F)cc1)C(O)c1ccc(F)cc1` (racemic) [Example 4, N-(2-(4-fluorophenyl)-2-hydroxy-1-((4-(trifluoromethyl)phenyl)methyl)ethyl)-4-(2-thienyl)butyramide], the melting point lay within 123 to 124 °C.
For the compound `CC1(C)CC=Cc2c(cccc2C(=O)N[C@H](Cc2cccc(OC(F)(F)C(F)F)c2)[C@@H](O)c2ccc(F)cc2)C1` (racemic) [Example 288, N-[(1RS,2SR)-2-(4-fluorophenyl)-2-hydroxy-1-[3-(1,1,2,2-tetrafluoroethoxy)benzyl]ethyl]-6,6-dimethyl-6,7-dihydro-5H-benzo[a]cycloheptene-1-carboxamide], the melting point is 115 to 116 °C.
Under `O=C(N[C@H](Cc1cccc(OC(F)(F)C(F)F)c1)[C@@H](O)c1cccc(F)n1)c1ccc(F)c2ccccc12` (racemic) [Example 266, 4-fluoro-N-{(1RS,2RS)-2-(6-fluoropyridin-2-yl)-2-hydroxy-1-[3-(1,1,2,2-tetrafluoroethoxy)benzyl]ethyl}-1-naphthamide] stands 185 to 186 °C; under `O=C(N[C@H](Cc1cccc(OC(F)(F)C(F)F)c1)[C@@H](O)c1cccc(OCc2ccccc2)c1)c1cccc2c1C=CCCC2` (racemic) [Example 240, N-{(1RS,2SR)-2-[3-(benzyloxy)phenyl]-2-hydroxy-1-[3-(1,1,2,2-tetrafluoroethoxy)benzyl]ethyl}-6,7-dihydro-5H-benzo[a][7]annulene-1-carboxamide], 128 to 129 °C; under `COc1ccc(C(=O)N[C@H](Cc2ccc(C(F)(F)F)cc2)[C@@H](O)c2ccc(F)cc2)cc1` (racemic) [Example 60, N-((1RS,2SR)-2-(4-fluorophenyl)-2-hydroxy-1-((4-(trifluoromethyl)phenyl)methyl)ethyl)-4-(methyloxy)benzamide], 192 to 193 °C.
Compound `O=C(CCc1ccccc1)N[C@H](Cc1ccc(C(F)(F)F)cc1)[C@@H](O)c1ccccc1F` (racemic) [Example 180, N-((1RS,2SR)-2-(2-fluorophenyl)-2-hydroxy-1-((4-(trifluoromethyl)phenyl)methyl)ethyl)-3-phenylpropanamide] yielded a melting point of 124 to 125 °C.
The value for `CC(F)(F)c1ccc(C[C@@H](NC(=O)c2ccc(F)c3ccccc23)[C@@H](O)c2ccc(F)cc2)cc1` (racemic) [Example 166, N-[(1RS,2SR)-1-[4-(1,1-difluoroethyl)benzyl]-2-(4-fluorophenyl)-2-hydroxyethyl]-4-fluoronaphthalene-1-carboxamide] was 220 to 221 °C; that for `CC(C)c1cccc(C[C@@H](NC(=O)c2cccc3c2C=CCCC3)[C@@H](O)c2ccc(F)cc2)c1` (racemic) [Example 323, N-[(1RS,2SR)-2-(4-fluorophenyl)-2-hydroxy-1-(3-isopropylbenzyl)ethyl]-6,7-dihydro-5H-benzo[a]cycloheptene-1-carboxamide] was 165 to 167 °C.
Consider `O=C(CCCc1ccccc1)N[C@H](Cc1ccccc1C(F)(F)F)[C@@H](O)c1ccc(F)cc1` (racemic) [Example 143, N-((1RS,2SR)-2-(4-fluorophenyl)-2-hydroxy-1-((2-(trifluoromethyl)phenyl)methyl)ethyl)-4-phenylbutyramide], for which the melting point was 161 to 162 °C.
In turn, `O=C(N[C@H](Cc1cccc(OC(F)(F)C(F)F)c1)[C@@H](O)c1ccnc(F)c1)c1ccc(F)c2ccccc12` (racemic) [Example 265, 4-fluoro-N-{(1RS,2SR)-2-(2-fluoropyridin-4-yl)-2-hydroxy-1-[3-(1,1,2,2-tetrafluoroethoxy)benzyl]ethyl}-1-naphthamide] showed a melting point of 170 to 171 °C.
Take `O=C(N[C@H](Cc1cccc(OC(F)(F)C(F)F)c1)[C@@H](O)c1ccc(Cl)nc1)c1ccc(F)c2ccccc12` (racemic) [Example 331, N-[(1RS,2SR)-2-(6-chloropyridin-3-yl)-2-hydroxy-1-[3-(1,1,2,2-tetrafluoroethoxy)benzyl]ethyl]-4-fluoronaphthalene-1-carboxamide]: the melting point was 185 to 187 °C.
`CC(C)(C)OC(=O)N[C@H](Cc1cccc(OC(F)(F)C(F)F)c1)[C@@H](O)c1csc(-c2ccccc2)n1` (racemic) [Example 361, tert-butyl (1RS,2RS)-2-hydroxy-2-(2-phenyl-1,3-thiazol-4-yl)-1-[3-(1,1,2,2-tetrafluoroethoxy)benzyl]ethylcarbamate] displayed a melting point of 127 to 128 °C.
With `CC(C)(C)c1ccc(C[C@@H](NC(=O)c2cccc3c2C=CCCC3)[C@@H](O)c2cccc(Cl)c2)cc1` (racemic) [Example 272, N-[(1RS,2SR)-1-(4-tert-butylbenzyl)-2-(3-chlorophenyl)-2-hydroxyethyl]-6,7-dihydro-5H-benzo[a][7]annulene-1-carboxamide], the melting point was in the range of 142 to 143 °C.
Compound `CC(C)(C)OC(=O)N[C@H](Cc1cnc(C(F)(F)F)s1)[C@@H](O)c1ccc(F)cc1` (racemic) [Example 168, tert-butyl N-[(1RS,2SR)-2-(4-fluorophenyl)-2-hydroxy-1-[[2-(trifluoromethyl)-1,3-thiazol-5-yl]methyl]ethyl]carbamate] displayed a melting point of 137 to 138 °C.
The compound `O=C(N[C@H](Cc1ccc(C(F)(F)F)cc1)[C@@H](O)c1ccc(F)cc1)c1ccc2c(c1)OCO2` (racemic) [Example 72, N-((1RS,2SR)-2-(4-fluorophenyl)-2-hydroxy-1-((4-(trifluoromethyl)phenyl)methyl)ethyl)-1,3-benzodioxole-5-carboxamide] registered a melting point of 180 to 181 °C.
The value for `O=C(O)CCC(=O)O[C@H](c1ccc(F)cc1)[C@H](Cc1ccc2c(c1)OC(F)(F)C(F)(F)O2)NC(=O)c1ccc(F)c2ccccc12` (racemic) (as salt: succinate) [Example 396, (1RS,2SR)-1-(4-fluorophenyl)-2-[(4-fluoro-1-naphthoyl)amino]-3-(2,2,3,3-tetrafluoro-2,3-dihydro-1,4-benzodioxin-6-yl)propyl hydrogen succinate] was 196 to 197 °C; that for `CC(C)(C)OC(=O)N[C@H](Cc1cccc(CC(F)(F)C(F)F)c1)[C@@H](O)c1ccc(F)cc1` (racemic) [Example 337, tert-butyl N-[(1RS,2SR)-2-(4-fluorophenyl)-2-hydroxy-1-[3-(2,2,3,3-tetrafluoropropyl)benzyl]ethyl]carbamate] was 168 to 169 °C; that for `O=C(N[C@H](Cc1cccc(OC(F)(F)C(F)F)c1)[C@@H](O)c1ccc(Oc2ccccc2)cc1)c1ccc(F)c2ccccc12` (racemic) [Example 267, 4-fluoro-N-{(1RS,2SR)-2-hydroxy-2-(4-phenoxyphenyl)-1-[3-(1,1,2,2-tetrafluoroethoxy)benzyl]ethyl}-1-naphthamide] was 155 to 156 °C.
`O=C(Cc1cccc2ccccc12)N[C@H](Cc1ccc(C(F)(F)F)cc1)[C@@H](O)c1ccc(F)cc1` (racemic) [Example 82, N-((1RS,2SR)-2-(4-fluorophenyl)-2-hydroxy-1-((4-(trifluoromethyl)phenyl)methyl)ethyl)-2-(1-naphthalenyl)acetamide]: the melting point was in the range of 186 to 187 °C.
In turn, `CC(F)(F)c1cccc(C[C@@H](NC(=O)c2ccc(F)c3ccccc23)[C@@H](O)c2ccc(F)cc2)c1` (racemic) [Example 359, N-[(1RS,2SR)-1-[3-(1,1-difluoroethyl)benzyl]-2-(4-fluorophenyl)-2-hydroxyethyl]-4-fluoro-1-naphthamide] had a melting point of 182 to 183 °C.
Turning to `O=C(N[C@H](Cc1cccc(OC(F)(F)C(F)F)c1)[C@@H](O)c1ccc(OCc2ccccc2)cc1)c1cccc2c1C=CCCC2` (racemic) [Example 236, N-{(1RS,2SR)-2-[4-(benzyloxy)phenyl]-2-hydroxy-1-[3-(1,1,2,2-tetrafluoroethoxy)benzyl]ethyl}-6,7-dihydro-5H-benzo[a][7]annulene-1-carboxamide], the melting point was 115 to 116 °C.
The value for `NC(=O)c1ccc(C(=O)N[C@H](Cc2ccc(C(F)(F)F)cc2)[C@@H](O)c2ccc(F)cc2)c2ccccc12` (racemic) [Example 104, N1-[(1RS,2SR)-2-(4-fluorophenyl)-2-hydroxy-1-[4-(trifluoromethyl)benzyl]ethyl]naphthalene-1,4-dicarboxamide] was 255 to 256 °C; that for `CCCCc1ccc(C(=O)NC(Cc2ccc(C(F)(F)F)cc2)C(O)c2ccc(F)cc2)cc1` (racemic) [Example 13, 4-butyl-N-[2-(4-fluorophenyl)-2-hydroxy-1-[[4-(trifluoromethyl)phenyl]methyl]ethyl]benzamide] was 138 to 158 °C; that for `O=C(N[C@H](Cc1ccc(C(F)(F)F)cc1)[C@@H](O)c1ccc(F)cc1)c1ccc(F)c2c1CCCC2` (racemic) [Example 31, 4-fluoro-N-[(1RS,2SR)-2-(4-fluorophenyl)-2-hydroxy-1-[4-(trifluoromethyl)benzyl]ethyl]-5,6,7,8-tetrahydronaphthalene-1-carboxamide] was 241 to 242 °C.
Under `O=C(N[C@H](Cc1ccc(OC(F)(F)F)cc1)[C@@H](O)c1ccc(F)cc1)c1cccc2c1C=CCCC2` (racemic) [Example 135, N-[(1RS,2SR)-2-(4-fluorophenyl)-2-hydroxy-1-[4-(trifluoromethoxy)benzyl]ethyl]-6,7-dihydro-5H-benzo[a]cycloheptene-1-carboxamide] stands 202 to 203 °C; under `O=C(N[C@H](Cc1cccc(C=C(F)C(F)F)c1)[C@@H](O)c1ccc(F)cc1)c1cccc2c1C=CCCC2` (racemic) [Example 335, N-[(1RS,2SR)-2-(4-fluorophenyl)-2-hydroxy-1-[3-(2,3,3-trifluoro-1-propenyl)benzyl]ethyl]-6,7-dihydro-5H-benzo[a]cycloheptene-1-carboxamide], 165 to 167 °C.

One may read the melting point as the temperature, or range, at which the solid turns liquid.
